≈ marks a conversion by molar mass, not a printed value.
Assays:
[1] = system: Acinetobacter baumannii; experiment: Antibacterial activity against MBL-producing Acinetobacter baumannii assessed as diameter of inhibition zone in presence of imipenem; type: functional
[2] = Inhibition of Acinetobacter baumannii Metallo-beta-lactamase IMP-1
[3] = Cytotoxicity against human HepG2 cells incubated for 24 hrs by AlamarBlue-based assay; type: toxicity, cell-based
[4] = system: Vero C1008; experiment: Cytotoxicity against African green monkey Vero E6 cells at 40 ug/ml relative to control; type: toxicity, cell-based; conditions: chlorocebus sabaeus, at 40 µg/mL
[5] = system: Escherichia coli; experiment: Synergistic activity against multiple NDM-1-producing engineered Escherichia coli clinical isolate assessed as fractional inhibition concentration index in presence of meropenem; type: functional
[6] = system: L929; experiment: Cytotoxicity against mouse L929 cells at 40 ug/ml relative to control; type: toxicity, cell-based; conditions: at 40 µg/mL
[7] = system: Escherichia coli; experiment: Synergistic activity against NDM-1-producing engineered Escherichia coli assessed as fractional inhibition concentration index in presence of meropenem; type: functional
[8] = biological target: T1, Metallo-beta-lactamase type 2 (Bacteria, UniProt C7C422); experiment: Inhibition of bacterial NDM-1 (unknown origin)
T1 sequence (C7C422 whole entry): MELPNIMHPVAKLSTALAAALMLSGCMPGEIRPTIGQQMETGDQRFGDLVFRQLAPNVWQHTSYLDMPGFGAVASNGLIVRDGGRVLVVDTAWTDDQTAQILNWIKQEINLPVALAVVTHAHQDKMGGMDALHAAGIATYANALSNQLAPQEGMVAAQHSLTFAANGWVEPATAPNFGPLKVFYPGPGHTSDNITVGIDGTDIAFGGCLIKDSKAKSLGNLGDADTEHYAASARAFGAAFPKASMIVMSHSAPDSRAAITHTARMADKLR

[9] = biological target: T1, Metallo-beta-lactamase type 2; experiment: Binding affinity to bacterial NDM-1 (unknown origin) using nitrocefin as substrate assessed as inhibition constant
[10] = Cytotoxicity against human HEK293 cells incubated for 24 hrs by MTT assay; type: toxicity, cell-based
[11] = biological target: T1, Metallo-beta-lactamase type 2; experiment: Inhibition of bacterial NDM-1 (unknown origin) using nitrocefin as substrate
[12] = system: Enterobacteriaceae; experiment: Synergistic antibacterial activity against NDM-1-producing Carbapenem-resistant Enterobacteriaceae assessed as fractional inhibitory concentration index in presence of meropenem; type: functional
[13] = biological target: Beta-lactamase VIM-1 (Bacteria, UniProt Q8GDC1); experiment: Binding affinity to bacterial Metallo-beta-lactamase VIM-1 (unknown origin) assessed as dissociation constant
[14] = Inhibition of bacterial Metallo-beta-lactamase GIM-1 using nitrocefin as substrate; design: species or system Bacteria
[15] = Cytotoxicity against human HeLa cells incubated for 24 hrs by PrestoBlue reagent based assay; type: toxicity, cell-based
[16] = Binding affinity to bacterial Metallo-beta-lactamase VIM-2 (unknown origin) expressed in Escherichia coli BL21(DE3) cells assessed as inhibition constant; design: species or system Bacteria
[17] = Binding affinity to bacterial Metallo-beta-lactamase IMP-1 (unknown origin) expressed in Escherichia coli BL21(DE3) cells assessed as inhibition constant; design: species or system Bacteria
[18] = system: Escherichia coli; experiment: Synergistic activity against IMP-1 producing Escherichia coli NUBL-24 infected in CD1 mouse assessed as death rescue at 100 mg/kg, ip measured for 7 days in presence of meropenem relative to control; type: functional; conditions: time 7 day
[19] = system: HeLa; experiment: Cytotoxicity against human HeLa cells at >1000 uM incubated for 24 hrs by Celltiter assay relative to control; type: toxicity, cell-based
[20] = system: Klebsiella pneumoniae; experiment: Synergistic activity against NDM-1/VIM-1-producing Klebsiella pneumoniae MS5674 assessed as fractional inhibition concentration index in presence of meropenem by checkerboard assay; type: functional
[21] = system: Escherichia coli; experiment: Synergistic activity against IMP-1 producing engineered Escherichia coli NUBL-24 assessed as fractional inhibition concentration index incubated for 16 to 20 hrs in presence of meropenem by CLSI-based microdilution method; type: functional; conditions: time 16-20 hrs
[22] = system: Enterobacteriaceae; experiment: Antibacterial activity against NDM-1-producing Enterobacteriaceae; type: functional
[23] = biological target: T1, Metallo-beta-lactamase type 2; experiment: Binding affinity to wildtype bacterial NDM-1 (unknown origin) expressed in Escherichia coli BL21(DE3) cells assessed as dissociation constant
[24] = biological target: T1, Metallo-beta-lactamase type 2; experiment: Inhibition of wildtype bacterial NDM-1 (unknown origin) expressed in Escherichia coli BL21(DE3) cells using nitrocefin as substrate incubated for 20 mins by absorbance based assay
[25] = system: Escherichia coli; experiment: Antibacterial activity against IMP-type producing Escherichia coli clinical isolate in presence of imipenem by CLSI-based broth microdilution method; type: functional
[26] = system: Escherichia coli; experiment: Antibacterial activity against IMP-type producing Escherichia coli clinical isolate in presence of meropenem by CLSI-based broth microdilution method; type: functional
[27] = biological target: Metallo-beta-lactamase VIM-2 (Pseudomonas aeruginosa, UniProt D1MEN9); experiment: Inhibition of N-terminal His-tagged recombinant Pseudomonas aeruginosa Metallo-beta-lactamase VIM-2 expressed in Escherichia coli BL21 star cells using nitrocefin as substrate by absorbance based assay
[28] = system: Klebsiella pneumoniae; experiment: Antibacterial activity against NDM-1-producing Klebsiella pneumoniae clinical isolate assessed as fold reduction in MIC in presence of meropenem CLSI-based broth microdilution method; type: functional
[29] = system: Escherichia coli; experiment: Antibacterial activity against NDM-1-producing Escherichia coli assessed as fold reduction in MIC in presence of meropenem CLSI-based broth microdilution method; type: functional
[30] = Cytotoxicity against human HepG2 cells incubated for 24 hrs by CellTiter-Glo assay; type: toxicity, cell-based
[31] = system: Klebsiella pneumoniae; experiment: Antibacterial activity against VIM-1-producing Klebsiella pneumoniae NCTC 13440 clinical isolate by CLSI-based broth microdilution method; type: functional
[32] = Inhibition of His-tagged recombinant bacterial Metallo-beta-lactamase IMP-1 (unknown origin) expressed in Escherichia coli BL21 star cells; design: species or system Bacteria
[33] = Acute toxicity in ip dosed CD1 mouse assessed as lethal dose measured for 7 days; type: organism-based; conditions: in vivo, time 7 day
[34] = biological target: Angiotensin-converting enzyme (Homo sapiens, UniProt P12821); experiment: Inhibition of angiotensin-converting enzyme (unknown origin)
Sequence of Angiotensin-converting enzyme (P12821 whole entry): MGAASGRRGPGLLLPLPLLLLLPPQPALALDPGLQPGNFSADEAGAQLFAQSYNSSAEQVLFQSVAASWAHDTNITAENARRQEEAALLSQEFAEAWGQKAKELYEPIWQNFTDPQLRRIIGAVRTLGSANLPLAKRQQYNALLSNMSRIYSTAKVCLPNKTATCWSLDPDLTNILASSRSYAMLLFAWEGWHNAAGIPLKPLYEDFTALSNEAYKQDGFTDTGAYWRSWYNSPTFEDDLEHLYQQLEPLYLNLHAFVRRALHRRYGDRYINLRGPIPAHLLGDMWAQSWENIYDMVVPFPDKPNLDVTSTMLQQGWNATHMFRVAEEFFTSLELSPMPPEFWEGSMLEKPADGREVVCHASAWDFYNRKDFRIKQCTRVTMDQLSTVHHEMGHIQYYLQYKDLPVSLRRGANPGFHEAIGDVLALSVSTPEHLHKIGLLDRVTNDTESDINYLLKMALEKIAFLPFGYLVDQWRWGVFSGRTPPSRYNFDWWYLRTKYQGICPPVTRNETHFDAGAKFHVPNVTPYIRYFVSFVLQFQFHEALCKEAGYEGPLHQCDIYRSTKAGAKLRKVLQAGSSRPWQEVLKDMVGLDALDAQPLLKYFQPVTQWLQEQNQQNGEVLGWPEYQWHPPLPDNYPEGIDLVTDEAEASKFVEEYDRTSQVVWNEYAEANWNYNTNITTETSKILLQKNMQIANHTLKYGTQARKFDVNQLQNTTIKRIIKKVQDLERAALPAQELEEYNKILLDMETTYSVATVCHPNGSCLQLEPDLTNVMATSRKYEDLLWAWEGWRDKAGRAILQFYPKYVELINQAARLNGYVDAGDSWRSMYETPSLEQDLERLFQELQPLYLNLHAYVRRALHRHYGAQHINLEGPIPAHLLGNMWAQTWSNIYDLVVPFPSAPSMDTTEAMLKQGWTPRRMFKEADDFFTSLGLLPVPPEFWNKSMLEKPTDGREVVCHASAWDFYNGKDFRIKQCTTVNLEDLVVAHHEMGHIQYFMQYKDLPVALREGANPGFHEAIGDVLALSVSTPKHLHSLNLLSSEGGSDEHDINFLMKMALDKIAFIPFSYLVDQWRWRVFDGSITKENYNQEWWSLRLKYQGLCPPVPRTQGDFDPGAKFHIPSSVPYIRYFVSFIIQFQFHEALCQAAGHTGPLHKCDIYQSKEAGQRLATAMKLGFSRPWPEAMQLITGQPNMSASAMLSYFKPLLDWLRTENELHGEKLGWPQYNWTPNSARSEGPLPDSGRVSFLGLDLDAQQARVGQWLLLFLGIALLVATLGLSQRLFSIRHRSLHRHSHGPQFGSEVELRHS

[35] = system: Escherichia coli; experiment: Synergistic activity against VIM-2-producing Escherichia coli assessed as fractional inhibition concentration index in presence of ceftazidime by checkerboard assay; type: functional
[36] = Acute toxicity in iv dosed CD1 mouse assessed as lethal dose measured for 7 days; type: organism-based; conditions: in vivo, time 7 day
[37] = system: Escherichia coli; experiment: Synergistic activity against NDM-1-producing Escherichia coli RC0089 assessed as fractional inhibition concentration index in presence of meropenem by CLSI-based assay; type: functional
[38] = Binding affinity to bacterial Metallo-beta-lactamase IMP-1 (unknown origin) using FC5 as substrate preincubated for 15 min followed by substrate addition by fluorescence based assay; design: species or system Bacteria
[39] = system: Escherichia coli; experiment: Antibacterial activity against NDM-1-producing Escherichia coli RC0089 incubated for 16 to 20 hrs in presence of meropenem CLSI-based assay; type: functional; conditions: time 16-20 hrs

Oc1ccccc1/C=N/c1cccnc1/N=C/c1ccccc1O
diameter of the inhibition zone (DIZ) [1]: 23 mm | IC50 [2]: 93.7 µM

CN(C[C@H](O)[C@@H](O)[C@H](O)[C@H](O)CO)C(=O)c1ccc(CN(Cc2ccccn2)Cc2ccccn2)nc1
IC50 at 24 h [3]: > 100 µM

CO[C@H]1C(=O)N2C(C(=O)O)=C(CSc3nc4ccccc4s3)CS[C@H]12
Activity [4]: > 60% | fractional inhibitory concentration index (FICI) [5]: 0.031 | Activity [6]: > 60% | fractional inhibitory concentration index (FICI) [7]: 0.02 | IC50 [8]: 0.096 µM

COC(=O)[C@H]1CN(C(=O)CN(Cc2ccccn2)Cc2ccccn2)C[C@@H]1c1ccc(OCc2ccccc2)c(OC)c1 (racemic)
Ki [9]: 4.6 µM | IC50 at 24 h [10]: > 128 µM | IC50 [11]: 51 µM | fractional inhibitory concentration index (FICI) [12]: 0.01

O=C1C(SCCCS)CCN1c1ccccc1 (configuration not stated)
Kd [13]: < 0.88 µM

COP(=O)(CCSC(C)=O)N(C)Cc1ccccn1 (racemic)
IC50 [14]: 109 µM | IC50 at 24 h [15]: > 500 µM

CCc1c(C(=O)O)c(S(N)(=O)=O)c(CC)n1C
Ki [16]: 0.02 µM | Ki [17]: 0.26 µM | Activity [18]: 100% | Activity [19]: > 50% | fractional inhibitory concentration index (FICI) [20]: 0.05 | fractional inhibitory concentration index (FICI) [21]: 0.26

CC1=C[C@@]2(C)[C@@H](/C(C)=C/[C@]3(C)O[C@H](C)[C@@]4(C)O[C@H]43)[C@](C)([C@@H](O)[C@@H](C)C(=O)C(C)C)[C@H]2[C@]2(C)O[C@H]12
MIC50 [22]: 32 µM (≈ 15.1 µg/mL) | Kd [23]: 11.8 µM | IC50 [24]: 12.1 µM

Nc1ccc(-c2ccn(S(N)(=O)=O)c2C(=O)O)cn1
MIC [25]: 0.25 µg/mL | MIC [26]: 0.03 µg/mL | IC50 [27]: 32.4 µM | fold change (FC) [28]: 32 | fold change (FC) [29]: 32 | CC50 at 24 h [30]: > 256 µg/mL | MIC50 [31]: 0.06 µg/mL (≈ 0.213 µM) | IC50 [32]: 0.43 µM

Cc1oc(C)c(S(N)(=O)=O)c1C(=O)O
Ki [16]: 2.81 µM | LD50 at 168 h [33]: > 1000 mg/kg | Ki [17]: 0.22 µM | IC50 [34]: > 1000 µM | Activity [18]: 90% | fractional inhibitory concentration index (FICI) [35]: 0.31 | Activity [19]: > 50% | LD50 at 168 h [36]: 246 mg/kg | fractional inhibitory concentration index (FICI) [20]: 0.19 | fractional inhibitory concentration index (FICI) [21]: 0.11

Oc1ccc(Br)cc1/C=N/c1cccnc1/N=C/c1cc(Br)ccc1O
diameter of the inhibition zone (DIZ) [1]: 25 mm | IC50 [2]: 83.7 µM

CC(C)c1cccc2c(-c3ccc(F)cc3)c(C(=O)O)[nH]c12
fractional inhibitory concentration index (FICI) [37]: 0.258 | IC50 [38]: 0.14 µM | MIC [39]: 16 µg/mL

From ChEMBL document CHEMBL5356930, “Small-molecule inhibitors of bacterial-producing metallo-β-lactamases: insights into their resistance mechanisms and biochemical analyses of their activities” (RSC Med Chem, 2023)
